{"source": "patent US20040192765A1", "about": "(H. Lundbeck A/S, priority 2001, published 2004)", "type_in_all_cases": "in vivo", "key": {"[1]": {"system": "primary care patients with major depression disorder", "assay": "8-week, double-blind, randomised, placebo-controlled, flexible-dose clinical study", "description": "(§1) This has i.a. been found in the Chronic Mild Stress model (Wiliner P., Psychopharmachology 1997, 134, 319-329).\nA total of 471 patients were randomised into the study. The all-patient-treated set comprised 469 patients and the full-analysis set comprised 468 patients.\nThere was an approximately 3 to 1 ratio of women to men in each treatment group, and almost all patients were Caucasian. The mean age was 43 years (SD 11). At baseline, the mean MADRS total score was approximately 29 for the treatment group, which signifies moderate to severely ill patients."}, "[2]": {"assay": "fixed dose studies (MADRS rating scale and Clinical Global Impression)", "details": "escitalopram in a dose of 10 mg compared with citalopram 40 mg"}, "[3]": {"system": "Chronic Mild Stress model", "assay": "Chronic Mild Stress model", "details": "animal models, compared with citalopram-racemate", "description": "as §1"}, "[4]": {"assay": "pharmacological and clinical studies / animal models (summary statements)", "description": "This may be shown in functional in-vivo pharmacological models and studies of 5-HT-reuptake effect and or in behavior models, for example depression models."}}}
{"molecule": "CN(C)CCC[C@@]1(c2ccc(F)cc2)OCc2cc(C#N)ccc21", "note": "[escitalopram, (S)-1-[3-(dimethylamino)propyl]-1-(4-fluorophenyl)-1,3-dihydro-5-isobenzofurancarbonitrile]", "values": [{"measurement": "onset of effect", "setting": "[1]; 10 mg escitalopram, 20 mg citalopram, versus placebo", "value": "showed effects after one week"}, {"measurement": "adjusted mean change in MADRS total score versus placebo (significance)", "setting": "[1]; Week 1 (p=0.023) to Week 4 (p=0.002), observed cases", "value": "significantly superior therapeutic effect"}, {"measurement": "CGI improvement and severity subscale versus placebo", "setting": "[1]; Week 4, last observation carried forward", "value": "statistically significantly superior to placebo"}, {"measurement": "adjusted mean change in MADRS total score versus placebo", "setting": "[1]; Week 4, last observation carried forward, 10 mg escitalopram, 20 mg citalopram, escitalopram p=0.002, citalopram statistically insignificant", "value": 2.7, "unit": "points"}, {"measurement": "CGI improvement and severity subscale versus placebo", "setting": "[1]; from Week 1 onwards (p<0.05), observed cases, 4-week period", "value": "significantly superior to placebo"}, {"measurement": "effect as determined by MADRS rating scale and Clinical Global Impression (severity and improvement)", "setting": "[2]", "value": "at least same effect as citalopram in a dose of 40 mg"}, {"measurement": "speed of response", "setting": "[3]", "value": "faster response than citalopram-racemate"}, {"measurement": "onset of action", "setting": "[4]; animal models and clinical studies, compared with the racemate and other SSRIs", "value": "faster onset of action"}, {"measurement": "potency relative to the racemate", "setting": "[4]; pharmacological and clinical studies", "value": "substantially more than two times as potent as the racemate"}, {"measurement": "extent of response", "setting": "[4]; various animal models", "value": "more full response"}]}
